Measurements: US12410187B2, “Fused tricyclic compounds useful as anticancer agents” (ASTRAZENECA AB, priority 2019, dated 2025)
Read-outs that look alike come from different tables or passages of the source.

Experiments:
KRasG12C [1] = target: T1, KRasG12C (Homo sapiens, UniProt P01116, G12C); assay: KRasG12C functional assay (HTRF/FRET nucleotide exchange and Raf RBD binding); format: biochemical; details: samples incubated for 4 hrs, FRET readout, single experiment or average of two or more
T1 construct: biotin (biotinylated); made in house
T1 sequence (P01116 1-188 isoform P01116-2 G12C): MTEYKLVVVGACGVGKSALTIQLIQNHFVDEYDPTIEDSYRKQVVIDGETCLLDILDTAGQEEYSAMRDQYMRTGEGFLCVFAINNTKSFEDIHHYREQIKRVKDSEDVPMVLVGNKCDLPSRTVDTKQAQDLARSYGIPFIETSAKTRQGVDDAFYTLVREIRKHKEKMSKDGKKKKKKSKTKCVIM
Description: All enzyme and substrate solutions were prepared in assay buffer containing 20 mM HEPES (pH 7.5), 5 mM MgCl2, 150 mM NaCl, and 0.01% Tween 20. […] In a separate mix 20 nM GST-Raf Ras binding domain (GST-Raf RBD, purified in house) and 4 μg/ml anti-GST XL665 antibody (Cisbio) was prepared in assay buffer containing 50 mM Potassium Fluoride and 0.05 mg/ml BSA and equilibrated for 4 hours before adding 0.6 μM Guanosine 5′-[γ-thio]triphosphate (GTPγS, Sigma) and 0.08 μM SOS (purified in house). 5 μl of the GST-RAF RBD mix was then dispensed into each well of the assay plate. […] This is detected simultaneously via the specific binding interaction between active GTPγS KRas^G12C with GST-Raf RBD which brings the europium and XL665 into close proximity enabling an increased FRET signal to be detected on a Pherastar (BMG) plate reader equipped with the HTRF filter module. […] IC50 values were calculated from normalised dose-response response FRET data curve fitted in Genedata screener (Basel, Switzerland).

KRasG12C [2] = target: T1, KRasG12C; assay: KRasG12C mass spectrometry adducting assay; format: binding; details: test compound final concentration 10 μM, 4 hours reaction with 4 μM GDP loaded biotinylated KRasG12C
Description: Enzyme solutions were prepared in assay buffer containing 20 mM HEPES (pH 7.5), 5 mM MgCl2, and 150 mM NaCl. […] The plate was sealed before reading on a Xevo G2 QTOF (Waters) and Acquity LC system (Waters). 10 μl of sample was injected onto a Xbridge BEH300; C4; 3.5 um; 2.1×50 mm column (Waters) running a 3 minute gradient. Blank samples were run in between each test sample.
Data was analysed in Mass Lynx software (Waters), the Total ion count (TIC) trace was used and the eluted protein peak data combined. Using the combined spectrum the data was deconvoluted using MaxEnt1 method. The peak area for apo-protein KRas^G12C (APO) and KRAS+relative cmpd mass (adduct) were measured, and a percentage adduct was calculated using the following calculation: Percent adduct=100*(area of adduct peak/(sum of APO+adduct peaks).
The data from this mass spectrometry adducing assay is presented in the column labelled KRasG12C M.S. Binding Mean adduct % in Table A below.

MDR1 (Pgp) and BCRP = assay: Blood brain barrier penetrant assessment: efflux ratio in MDCK_MDR1_BCRP cells; format: in vitro ADME; details: human, MDCK cells doubly transfected with MDR1 (Pgp) and BCRP, ratio of 2 or less = potential for good BBB penetration, read-out: Hu MDCK-MDR1-BCRP (0.1 uM) Mean Efflux Ratio
Description: In order to evaluate blood brain barrier (BBB) penetrant properties the efflux properties of compounds according to the specification was measured in cells transfected with the major efflux pumps expressed in the endothelial cells of the BBB. The assessment of efflux properties was performed using Madin-Darby Canine Kidney (MDCK) cells doubly transfected with MDR1 (Pgp) and BCRP. The transfected cell line, MDCK_MDR1_BCRP, thus expresses the two main efflux pumps that actively serve to exclude transit of compounds across the BBB and the efflux ration from these cell can be measured as described in the literature (Durant et al, Sci. Adv. 2018; eeat:1719). A compound that has an efflux ratio of 2 or less as measured by this technique is identified as having the potential for good BBB penetrant properties (Colclough et al, Drug Disc. Today 2019; 24(5), 1067-73).

[3] = KRasG12C functional assay IC50, GDP loaded biotinylated KRasG12C
[4] = GDP loaded biotinylated KRasG12C, read-out: KRasG12C functional assay IC50

| IC50 (KRasG12C [1]; [3]) | KRasG12C M.S. Binding Mean adduct % (KRasG12C [2]) | efflux ratio at 0.1 uM (MDR1 (Pgp) and BCRP) | IC50 (KRasG12C [1]; [4]) | Compound |
| --- | --- | --- | --- | --- |
| 1410 nM | 80% |  |  | C=CC(=O)N1CCN2Cc3ccc(-c4c(C)ccc5[nH]ncc45)c(Cl)c3OC[C@@H]2C1 (single isomer, unassigned) [Example 3] |
| 74000 nM | 0% | 0.9 |  | C=CC(=O)N1CCN2Cc3ccc(-c4c(C)ccc5[nH]ncc45)c(Cl)c3OC[C@@H]2C1 (single isomer, unassigned) [Example 4] |
| 698 nM | 91% |  |  | C=CC(=O)N1CCN2C(=O)c3ccc(-c4c(C)ccc5[nH]ncc45)c(Cl)c3OC[C@H]2C1 (single isomer, unassigned) [Example 8] |
| 332 nM | 97% |  |  | C=CC(=O)N1CCN2Cc3ccc(-c4c(C)ccc5[nH]ncc45)c(Cl)c3OC[C@H]2C1 (single isomer, unassigned) [Example 10] |
| 2610 nM | 12% |  |  | C=CC(=O)N1CCN2Cc3cc(F)c(-c4c(O)cccc4Cl)c(F)c3OC[C@H]2C1 (single isomer, unassigned) [Example 42] |
| 33 nM | 95% | 0.7 |  | C=CC(=O)N1CCN2Cc3cc(F)c(-c4c(O)cccc4Cl)c(F)c3OC[C@H]2C1 (single isomer, unassigned) [Example 43] |
| 66 nM | 97% | 1.3 |  | C=CC(=O)N1CCN2Cc3cc(F)c(-c4c(C)cccc4O)c(F)c3OC[C@H]2C1 (single isomer, unassigned) [Example 45] |
|  |  | 0.9 | 14 nM | C=CC(=O)N1CCN2Cc3cc(C#CC)c(-c4c(O)cccc4Cl)c(Cl)c3OC[C@H]2C1 (single isomer, unassigned) [Example 109] |
|  |  | 1.5 | 44 nM | [2H]C([2H])([2H])Oc1nc2c(c(Cl)c1-c1c(O)cccc1Cl)OC[C@H]1CN(C(=O)C=C)CCN1C2 (single isomer, unassigned) [Example 112] |
|  |  | 0.7 | 19.3 nM | C#Cc1cc2c(c(Cl)c1-c1c(O)cccc1Cl)OC[C@H]1CN(C(=O)C=C)CCN1C2 [Example 78, 1-[(12aR)-10-Chloro-9-(2-chloro-6-hydroxyphenyl)-8-ethynyl-3,4,12,12a-tetrahydro-6H-pyrazino[2,1-c][1,4]benzoxazepin-2(1H)-yl]prop-2-en-1-one] |
